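Each compound was tested at five concentrations against cells in 96-well plates for 48 hours. The concentration for full growth arrest is given as TGI.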
Legend:
Test in all cases: DTP human tumour cell line panel, 48 h
OVCAR-5 ovarian = system: OVCAR-5 ovarian
HT29 colon = system: HT29 colon
EKVX NSCLC = system: EKVX NSCLC
SF-268 CNS = system: SF-268 CNS
UACC-62 melanoma = system: UACC-62 melanoma
U251 CNS = system: U251 CNS
786-0 renal = system: 786-0 renal
MDA-MB-231 breast = system: MDA-MB-231 breast
CCRF-CEM leukemia = system: CCRF-CEM leukemia
HOP-92 NSCLC = system: HOP-92 NSCLC
PC-3 prostate = system: PC-3 prostate
MDA-N = system: MDA-N
M14 melanoma = system: M14 melanoma
MOLT-4 leukemia = system: MOLT-4 leukemia
TK-10 renal = system: TK-10 renal
HOP-62 NSCLC = system: HOP-62 NSCLC
SF-295 CNS = system: SF-295 CNS
HCC-2998 colon = system: HCC-2998 colon
NCI-H226 lung = system: NCI-H226 lung
SK-MEL-2 melanoma = system: SK-MEL-2 melanoma

Work on `SCc1ccc(CS)s1` yielded a TGI (OVCAR-5 ovarian) greater than 100 µM, a TGI (HT29 colon) greater than 100 µM and a TGI (EKVX NSCLC) greater than 100 µM. It also gave a TGI (SF-268 CNS) greater than 100 µM, a TGI (UACC-62 melanoma) greater than 100 µM and a TGI (U251 CNS) greater than 100 µM. The TGI (786-0 renal) was greater than 100 µM, the TGI (MDA-MB-231 breast) was greater than 100 µM and the TGI (CCRF-CEM leukemia) was greater than 100 µM. It also gave a TGI (HOP-92 NSCLC) greater than 100 µM, a TGI (PC-3 prostate) greater than 100 µM and a TGI (MDA-N) greater than 100 µM. The TGI (M14 melanoma) was greater than 100 µM, the TGI (MOLT-4 leukemia) was greater than 100 µM and the TGI (TK-10 renal) was greater than 100 µM. The TGI (HOP-62 NSCLC) was greater than 100 µM, the TGI (SF-295 CNS) was greater than 100 µM and the TGI (HCC-2998 colon) was greater than 100 µM.

Work on `COc1ccc(/C=C2/NC(=S)N=C2Cl)cc1` yielded a TGI (NCI-H226 lung) greater than 100 µM, a TGI (OVCAR-5 ovarian) of 37.9 µM and a TGI (HT29 colon) greater than 100 µM. For the same molecule, the TGI (EKVX NSCLC) was greater than 100 µM, the TGI (SF-268 CNS) was greater than 100 µM and the TGI (U251 CNS) was greater than 100 µM. It also gave a TGI (786-0 renal) greater than 100 µM, a TGI (MDA-MB-231 breast) greater than 100 µM and a TGI (CCRF-CEM leukemia) greater than 100 µM. It also gave a TGI (HOP-92 NSCLC) greater than 100 µM, a TGI (PC-3 prostate) greater than 100 µM and a TGI (MDA-N) greater than 100 µM. The TGI (M14 melanoma) was greater than 100 µM, the TGI (MOLT-4 leukemia) was greater than 100 µM and the TGI (TK-10 renal) was greater than 100 µM. The TGI (HOP-62 NSCLC) was greater than 100 µM, the TGI (SF-295 CNS) was greater than 100 µM and the TGI (SK-MEL-2 melanoma) was greater than 100 µM.

Molecule `COc1ccccc1N=N/C(=N\NC(=O)c1ccc(C)cc1)c1ccc(N(CCC#N)CCC#N)cc1C` has a TGI (NCI-H226 lung) of 28.5 µM, a TGI (OVCAR-5 ovarian) greater than 100 µM and a TGI (HT29 colon) greater than 100 µM. For the same molecule, the TGI (EKVX NSCLC) was greater than 100 µM, the TGI (SF-268 CNS) was greater than 100 µM and the TGI (U251 CNS) was greater than 100 µM. For the same molecule, the TGI (786-0 renal) was greater than 100 µM, the TGI (MDA-MB-231 breast) was greater than 100 µM and the TGI (CCRF-CEM leukemia) was greater than 100 µM. For the same molecule, the TGI (HOP-92 NSCLC) was greater than 100 µM, the TGI (PC-3 prostate) was greater than 100 µM and the TGI (MDA-N) was greater than 100 µM. The TGI (M14 melanoma) was greater than 100 µM, the TGI (MOLT-4 leukemia) was greater than 100 µM and the TGI (TK-10 renal) was greater than 100 µM. The TGI (HOP-62 NSCLC) was greater than 100 µM, the TGI (SF-295 CNS) was greater than 100 µM and the TGI (SK-MEL-2 melanoma) was greater than 100 µM. For the same molecule, the TGI (HCC-2998 colon) was greater than 100 µM.

In the case of `O=C1NC(N2CCCCC2)=N/C1=C\c1ccccc1O`, the TGI (NCI-H226 lung) is reported as greater than 100 µM, the TGI (OVCAR-5 ovarian) is reported as greater than 100 µM and the TGI (HT29 colon) is reported as greater than 100 µM. For the same molecule, the TGI (EKVX NSCLC) was greater than 100 µM, the TGI (SF-268 CNS) was greater than 100 µM and the TGI (U251 CNS) was greater than 100 µM. For the same molecule, the TGI (786-0 renal) was greater than 100 µM, the TGI (MDA-MB-231 breast) was greater than 100 µM and the TGI (CCRF-CEM leukemia) was greater than 100 µM. For the same molecule, the TGI (HOP-92 NSCLC) was greater than 100 µM, the TGI (PC-3 prostate) was greater than 100 µM and the TGI (MDA-N) was greater than 100 µM. For the same molecule, the TGI (M14 melanoma) was greater than 100 µM, the TGI (MOLT-4 leukemia) was greater than 100 µM and the TGI (TK-10 renal) was greater than 100 µM. The TGI (HOP-62 NSCLC) was greater than 100 µM, the TGI (SF-295 CNS) was greater than 100 µM and the TGI (SK-MEL-2 melanoma) was greater than 100 µM.

In the case of `COc1ccc(/C=C2\Sc3nnc(CNc4ccc(Cl)cc4)n3N=C2c2cc(F)c(Cl)cc2Cl)cc1OC`, the TGI (NCI-H226 lung) is reported as greater than 100 µM, the TGI (OVCAR-5 ovarian) is reported as greater than 100 µM and the TGI (HT29 colon) is reported as greater than 100 µM. It also gave a TGI (EKVX NSCLC) greater than 100 µM, a TGI (SF-268 CNS) greater than 100 µM and a TGI (U251 CNS) greater than 100 µM. For the same molecule, the TGI (786-0 renal) was greater than 100 µM, the TGI (MDA-MB-231 breast) was greater than 100 µM and the TGI (CCRF-CEM leukemia) was greater than 100 µM. The TGI (HOP-92 NSCLC) was greater than 100 µM, the TGI (PC-3 prostate) was greater than 100 µM and the TGI (MDA-N) was greater than 100 µM. It also gave a TGI (M14 melanoma) greater than 100 µM, a TGI (MOLT-4 leukemia) greater than 100 µM and a TGI (TK-10 renal) greater than 100 µM. The TGI (HOP-62 NSCLC) was greater than 100 µM, the TGI (SF-295 CNS) was greater than 100 µM and the TGI (SK-MEL-2 melanoma) was greater than 100 µM. It also gave a TGI (HCC-2998 colon) greater than 100 µM.

`O=C(NCCN1CCCCC1)c1ccc(I)cc1` was tested, and the TGI (NCI-H226 lung) was greater than 100 µM, the TGI (OVCAR-5 ovarian) was greater than 100 µM and the TGI (HT29 colon) was greater than 100 µM. The TGI (EKVX NSCLC) was greater than 100 µM, the TGI (SF-268 CNS) was greater than 100 µM and the TGI (U251 CNS) was greater than 100 µM. For the same molecule, the TGI (786-0 renal) was greater than 100 µM, the TGI (MDA-MB-231 breast) was greater than 100 µM and the TGI (CCRF-CEM leukemia) was greater than 100 µM. For the same molecule, the TGI (HOP-92 NSCLC) was greater than 100 µM, the TGI (PC-3 prostate) was greater than 100 µM and the TGI (MDA-N) was greater than 100 µM. For the same molecule, the TGI (M14 melanoma) was greater than 100 µM, the TGI (MOLT-4 leukemia) was greater than 100 µM and the TGI (TK-10 renal) was greater than 100 µM. For the same molecule, the TGI (HOP-62 NSCLC) was greater than 100 µM, the TGI (SF-295 CNS) was greater than 100 µM and the TGI (SK-MEL-2 melanoma) was greater than 100 µM. It also gave a TGI (HCC-2998 colon) greater than 100 µM.

Reference: PubChem BioAssay (NCI)
